Assay results from ChEMBL document CHEMBL4800731, “Data for DCP probe JNJ-65355394” (2021).

Assays:
[1] = biological target: T1, GABA-A receptor; anion channel (Rattus norvegicus) (UniProt O09028+P15431+P18506+P18508+P19969+P20236+P23574+P23576+P28471+P28473+P30191+P62813+P63079+P63138+Q91ZM7+Q9ES14); conditions: Compound concentration 10.0 uM
Rattus norvegicus [2] = species on record: Rattus norvegicus; experiment: rNaCH Cerep panel
[3] = biological target: 5-hydroxytryptamine receptor 6 (Homo sapiens) (UniProt P50406); conditions: Compound concentration 10.0 uM
[4] = biological target: Type-1 angiotensin II receptor (Homo sapiens) (UniProt P30556); experiment: hAT1 Cerep panel
[5] = biological target: 5-hydroxytryptamine receptor 5A (Homo sapiens) (UniProt P47898); conditions: Compound concentration 10.0 uM
[6] = biological target: Alpha-2A adrenergic receptor (Homo sapiens) (UniProt P08913); conditions: Compound concentration 10.0 uM
Rattus norvegicus [7] = species on record: Rattus norvegicus; conditions: Compound concentration 10.0 uM
[8] = biological target: Delta-type opioid receptor (Homo sapiens) (UniProt P41143); conditions: Compound concentration 10.0 uM
[9] = biological target: Sigma intracellular receptor 2 (Homo sapiens, UniProt Q5BJF2); conditions: Compound concentration 10.0 uM
[10] = biological target: 5-hydroxytryptamine receptor 7 (Homo sapiens) (UniProt P34969); conditions: Compound concentration 10.0 uM
[11] = biological target: 5-hydroxytryptamine receptor 2B (Homo sapiens) (UniProt P41595); conditions: Compound concentration 10.0 uM
[12] = biological target: Sodium-dependent serotonin transporter (Homo sapiens, UniProt P31645); conditions: Compound concentration 10.0 uM
[13] = biological target: Alpha-1D adrenergic receptor (Homo sapiens) (UniProt P25100); conditions: Compound concentration 10.0 uM
[14] = biological target: D(2) dopamine receptor (Homo sapiens) (UniProt P14416); conditions: Compound concentration 10.0 uM
[15] = biological target: 5-hydroxytryptamine receptor 2C (Homo sapiens) (UniProt P28335); conditions: Compound concentration 10.0 uM
[16] = biological target: 5-hydroxytryptamine receptor 2A (Homo sapiens) (UniProt P28223); experiment: h5HT2A Cerep panel
[17] = biological target: 5-hydroxytryptamine receptor 2A (Homo sapiens) (UniProt P28223); conditions: Compound concentration 10.0 uM
[18] = biological target: T2, 5-hydroxytryptamine receptor 1A (Homo sapiens) (UniProt P08908); conditions: Compound concentration 10.0 uM
T2 sequence (whole entry): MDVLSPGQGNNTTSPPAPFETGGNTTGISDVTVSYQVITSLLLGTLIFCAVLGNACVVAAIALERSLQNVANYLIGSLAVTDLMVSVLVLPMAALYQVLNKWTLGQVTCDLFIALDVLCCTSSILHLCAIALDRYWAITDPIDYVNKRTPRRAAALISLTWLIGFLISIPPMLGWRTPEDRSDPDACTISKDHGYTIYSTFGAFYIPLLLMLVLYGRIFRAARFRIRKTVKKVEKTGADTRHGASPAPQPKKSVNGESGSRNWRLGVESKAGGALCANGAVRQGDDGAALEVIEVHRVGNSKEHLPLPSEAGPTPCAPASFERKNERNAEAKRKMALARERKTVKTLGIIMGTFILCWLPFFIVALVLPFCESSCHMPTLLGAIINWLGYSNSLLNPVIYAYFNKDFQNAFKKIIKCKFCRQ

[19] = biological target: T1, GABA-A receptor; anion channel (Rattus norvegicus); conditions: Compound concentration 10.0 uM; remark: listed apart in the source
[20] = biological target: Histamine H1 receptor (Homo sapiens) (UniProt P35367); conditions: Compound concentration 10.0 uM
[21] = biological target: Sodium-dependent noradrenaline transporter (Homo sapiens) (UniProt P23975); conditions: Compound concentration 10.0 uM
[22] = biological target: Alpha-2B adrenergic receptor (Homo sapiens) (UniProt P18089); conditions: Compound concentration 10.0 uM
[23] = biological target: Sodium-dependent dopamine transporter (Homo sapiens, UniProt Q01959); conditions: Compound concentration 10.0 uM
[24] = biological target: T3, Alpha-1B adrenergic receptor (Homo sapiens) (UniProt P35368); conditions: Compound concentration 10.0 uM
T3 sequence (whole entry): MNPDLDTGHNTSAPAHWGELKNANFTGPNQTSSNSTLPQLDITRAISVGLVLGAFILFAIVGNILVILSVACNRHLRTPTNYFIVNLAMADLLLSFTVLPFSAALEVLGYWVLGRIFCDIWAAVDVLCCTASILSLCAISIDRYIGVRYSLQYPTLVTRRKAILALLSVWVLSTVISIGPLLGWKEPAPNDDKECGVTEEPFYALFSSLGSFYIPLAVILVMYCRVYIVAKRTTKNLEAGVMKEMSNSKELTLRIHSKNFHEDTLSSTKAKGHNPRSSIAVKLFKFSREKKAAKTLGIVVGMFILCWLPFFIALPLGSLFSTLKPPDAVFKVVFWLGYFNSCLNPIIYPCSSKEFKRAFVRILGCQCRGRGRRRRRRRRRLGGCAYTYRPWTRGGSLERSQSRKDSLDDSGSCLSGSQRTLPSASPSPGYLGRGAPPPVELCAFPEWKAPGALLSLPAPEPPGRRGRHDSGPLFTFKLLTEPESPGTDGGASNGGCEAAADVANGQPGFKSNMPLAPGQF

[25] = biological target: Beta-1 adrenergic receptor (Homo sapiens) (UniProt P08588); conditions: Compound concentration 10.0 uM
[26] = biological target: Sodium-dependent noradrenaline transporter (Homo sapiens) (UniProt P23975); experiment: hNET Cerep panel
[27] = biological target: C-C chemokine receptor type 1 (Homo sapiens) (UniProt P32246); experiment: hCCR1 Cerep panel
[28] = biological target: Histamine H3 receptor (Homo sapiens) (UniProt Q9Y5N1); conditions: Compound concentration 10.0 uM
[29] = biological target: 5-hydroxytryptamine receptor 1E (Homo sapiens) (UniProt P28566); conditions: Compound concentration 10.0 uM
[30] = biological target: Sigma non-opioid intracellular receptor 1 (Homo sapiens, UniProt Q99720); experiment: GPCRScan assay: inhibition of Sigma 1; parameters: radioligand conc. used [nm] 4.0 – 5.0, parental cells HEKT

Sequence of Sodium-dependent noradrenaline transporter (Homo sapiens) (P23975 whole entry): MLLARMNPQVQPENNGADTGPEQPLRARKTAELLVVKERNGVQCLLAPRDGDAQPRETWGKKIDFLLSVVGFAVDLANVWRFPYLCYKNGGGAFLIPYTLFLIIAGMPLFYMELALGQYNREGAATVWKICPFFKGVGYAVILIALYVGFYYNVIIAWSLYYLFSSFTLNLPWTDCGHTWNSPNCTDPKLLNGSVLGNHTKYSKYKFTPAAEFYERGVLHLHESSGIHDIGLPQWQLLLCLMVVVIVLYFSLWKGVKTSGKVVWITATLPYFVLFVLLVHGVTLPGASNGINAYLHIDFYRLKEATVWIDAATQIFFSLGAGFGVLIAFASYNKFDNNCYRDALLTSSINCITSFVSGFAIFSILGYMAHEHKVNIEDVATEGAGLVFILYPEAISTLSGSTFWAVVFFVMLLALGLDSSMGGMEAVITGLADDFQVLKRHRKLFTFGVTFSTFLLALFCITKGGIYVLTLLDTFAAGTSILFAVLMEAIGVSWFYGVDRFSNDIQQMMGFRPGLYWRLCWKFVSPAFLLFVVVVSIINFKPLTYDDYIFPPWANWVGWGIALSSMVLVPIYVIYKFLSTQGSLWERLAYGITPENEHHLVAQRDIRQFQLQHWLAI
Sequence of 5-hydroxytryptamine receptor 2A (Homo sapiens) (P28223 whole entry): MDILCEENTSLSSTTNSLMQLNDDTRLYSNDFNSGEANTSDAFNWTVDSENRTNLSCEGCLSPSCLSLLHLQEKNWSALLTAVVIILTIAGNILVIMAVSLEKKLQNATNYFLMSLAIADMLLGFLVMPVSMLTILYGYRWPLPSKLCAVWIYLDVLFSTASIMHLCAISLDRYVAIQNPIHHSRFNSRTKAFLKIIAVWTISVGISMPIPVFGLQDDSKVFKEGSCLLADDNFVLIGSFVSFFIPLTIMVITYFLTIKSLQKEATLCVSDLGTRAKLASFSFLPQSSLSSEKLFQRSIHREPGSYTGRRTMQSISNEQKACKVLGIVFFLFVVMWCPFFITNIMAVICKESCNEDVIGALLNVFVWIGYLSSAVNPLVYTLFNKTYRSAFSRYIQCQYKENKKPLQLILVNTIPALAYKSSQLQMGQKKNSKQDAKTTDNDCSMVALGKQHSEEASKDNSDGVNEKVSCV
Sequence of Alpha-1D adrenergic receptor (Homo sapiens) (P25100 whole entry): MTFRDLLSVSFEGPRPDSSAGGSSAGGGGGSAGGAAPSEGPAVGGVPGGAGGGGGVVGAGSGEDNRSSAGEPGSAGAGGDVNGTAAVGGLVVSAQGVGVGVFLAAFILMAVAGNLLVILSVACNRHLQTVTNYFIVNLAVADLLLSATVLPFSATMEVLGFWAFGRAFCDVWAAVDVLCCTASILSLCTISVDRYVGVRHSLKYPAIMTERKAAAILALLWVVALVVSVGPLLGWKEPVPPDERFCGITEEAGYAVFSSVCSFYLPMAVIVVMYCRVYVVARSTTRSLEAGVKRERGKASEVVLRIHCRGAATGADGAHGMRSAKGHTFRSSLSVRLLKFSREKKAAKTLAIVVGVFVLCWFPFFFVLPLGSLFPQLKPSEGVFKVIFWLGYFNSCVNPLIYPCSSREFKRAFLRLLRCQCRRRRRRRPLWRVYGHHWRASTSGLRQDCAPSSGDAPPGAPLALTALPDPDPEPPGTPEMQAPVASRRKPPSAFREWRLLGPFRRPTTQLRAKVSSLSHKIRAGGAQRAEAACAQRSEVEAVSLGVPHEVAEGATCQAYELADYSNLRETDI
Sequence of 5-hydroxytryptamine receptor 6 (Homo sapiens) (P50406 whole entry): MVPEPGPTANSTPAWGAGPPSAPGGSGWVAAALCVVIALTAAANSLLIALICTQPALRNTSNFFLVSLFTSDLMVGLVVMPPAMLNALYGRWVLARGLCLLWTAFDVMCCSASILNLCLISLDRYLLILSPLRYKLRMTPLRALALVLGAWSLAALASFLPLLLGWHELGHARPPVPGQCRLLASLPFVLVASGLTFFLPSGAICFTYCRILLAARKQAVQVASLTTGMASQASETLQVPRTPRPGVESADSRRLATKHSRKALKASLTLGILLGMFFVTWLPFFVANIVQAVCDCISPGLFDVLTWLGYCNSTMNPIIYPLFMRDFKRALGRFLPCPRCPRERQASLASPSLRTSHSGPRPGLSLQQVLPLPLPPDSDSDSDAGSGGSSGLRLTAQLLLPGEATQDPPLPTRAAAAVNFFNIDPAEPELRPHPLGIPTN
Sequence of Sodium-dependent serotonin transporter (P31645 whole entry, looked up): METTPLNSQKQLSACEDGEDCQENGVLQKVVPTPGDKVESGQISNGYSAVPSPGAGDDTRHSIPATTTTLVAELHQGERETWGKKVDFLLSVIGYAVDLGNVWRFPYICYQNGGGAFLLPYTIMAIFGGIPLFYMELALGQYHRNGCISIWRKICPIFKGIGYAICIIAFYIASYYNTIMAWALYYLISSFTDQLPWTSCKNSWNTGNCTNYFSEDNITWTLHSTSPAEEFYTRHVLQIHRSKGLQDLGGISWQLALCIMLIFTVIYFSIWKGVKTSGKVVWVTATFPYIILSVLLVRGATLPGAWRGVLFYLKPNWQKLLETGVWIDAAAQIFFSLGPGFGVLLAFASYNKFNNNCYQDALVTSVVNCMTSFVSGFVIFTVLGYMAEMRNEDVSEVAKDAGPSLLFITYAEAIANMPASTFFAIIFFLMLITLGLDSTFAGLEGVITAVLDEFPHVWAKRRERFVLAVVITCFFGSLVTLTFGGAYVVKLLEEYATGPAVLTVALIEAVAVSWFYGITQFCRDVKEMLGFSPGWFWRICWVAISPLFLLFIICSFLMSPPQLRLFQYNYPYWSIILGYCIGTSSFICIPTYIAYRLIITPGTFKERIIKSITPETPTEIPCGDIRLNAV
Sequence of Sodium-dependent dopamine transporter (Q01959 whole entry): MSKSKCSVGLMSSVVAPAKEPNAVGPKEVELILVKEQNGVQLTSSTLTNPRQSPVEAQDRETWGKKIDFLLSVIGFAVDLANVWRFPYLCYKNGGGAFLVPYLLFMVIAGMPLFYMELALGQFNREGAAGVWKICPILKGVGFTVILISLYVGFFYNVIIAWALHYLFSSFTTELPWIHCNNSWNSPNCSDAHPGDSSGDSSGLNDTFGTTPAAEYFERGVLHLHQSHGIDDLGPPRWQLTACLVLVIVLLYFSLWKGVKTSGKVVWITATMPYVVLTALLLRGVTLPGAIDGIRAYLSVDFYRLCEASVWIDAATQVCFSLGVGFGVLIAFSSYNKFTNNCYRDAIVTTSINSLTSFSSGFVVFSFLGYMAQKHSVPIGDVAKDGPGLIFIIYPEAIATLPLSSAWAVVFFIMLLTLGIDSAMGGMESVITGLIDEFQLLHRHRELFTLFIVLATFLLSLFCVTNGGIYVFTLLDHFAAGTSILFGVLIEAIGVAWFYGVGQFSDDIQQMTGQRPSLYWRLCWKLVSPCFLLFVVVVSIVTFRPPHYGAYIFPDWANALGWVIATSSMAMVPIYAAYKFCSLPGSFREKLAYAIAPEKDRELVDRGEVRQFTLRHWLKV
Sequence of Delta-type opioid receptor (Homo sapiens) (P41143 whole entry): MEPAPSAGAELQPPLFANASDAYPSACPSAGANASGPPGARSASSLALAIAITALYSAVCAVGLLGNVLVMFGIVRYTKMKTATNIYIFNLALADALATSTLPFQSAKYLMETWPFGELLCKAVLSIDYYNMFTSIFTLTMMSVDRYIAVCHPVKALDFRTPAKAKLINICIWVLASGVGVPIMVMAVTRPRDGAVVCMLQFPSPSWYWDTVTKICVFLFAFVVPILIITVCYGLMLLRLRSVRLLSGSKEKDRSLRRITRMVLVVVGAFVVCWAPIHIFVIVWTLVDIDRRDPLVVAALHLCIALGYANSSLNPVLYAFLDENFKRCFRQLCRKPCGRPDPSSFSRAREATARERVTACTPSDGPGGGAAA
Sequence of D(2) dopamine receptor (Homo sapiens) (P14416 whole entry): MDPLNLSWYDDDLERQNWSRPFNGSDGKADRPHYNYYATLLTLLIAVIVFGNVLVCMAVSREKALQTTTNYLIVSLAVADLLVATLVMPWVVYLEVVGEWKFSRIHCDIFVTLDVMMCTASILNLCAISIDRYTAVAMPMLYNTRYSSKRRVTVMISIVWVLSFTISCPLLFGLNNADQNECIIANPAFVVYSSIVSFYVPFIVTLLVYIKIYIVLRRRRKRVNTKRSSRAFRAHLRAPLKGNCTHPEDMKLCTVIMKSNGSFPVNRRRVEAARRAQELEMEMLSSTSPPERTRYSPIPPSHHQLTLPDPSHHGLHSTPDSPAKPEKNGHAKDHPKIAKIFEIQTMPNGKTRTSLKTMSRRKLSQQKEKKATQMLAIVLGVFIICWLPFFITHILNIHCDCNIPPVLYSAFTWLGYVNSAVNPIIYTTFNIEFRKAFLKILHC
Sequence of 5-hydroxytryptamine receptor 7 (Homo sapiens) (P34969 whole entry): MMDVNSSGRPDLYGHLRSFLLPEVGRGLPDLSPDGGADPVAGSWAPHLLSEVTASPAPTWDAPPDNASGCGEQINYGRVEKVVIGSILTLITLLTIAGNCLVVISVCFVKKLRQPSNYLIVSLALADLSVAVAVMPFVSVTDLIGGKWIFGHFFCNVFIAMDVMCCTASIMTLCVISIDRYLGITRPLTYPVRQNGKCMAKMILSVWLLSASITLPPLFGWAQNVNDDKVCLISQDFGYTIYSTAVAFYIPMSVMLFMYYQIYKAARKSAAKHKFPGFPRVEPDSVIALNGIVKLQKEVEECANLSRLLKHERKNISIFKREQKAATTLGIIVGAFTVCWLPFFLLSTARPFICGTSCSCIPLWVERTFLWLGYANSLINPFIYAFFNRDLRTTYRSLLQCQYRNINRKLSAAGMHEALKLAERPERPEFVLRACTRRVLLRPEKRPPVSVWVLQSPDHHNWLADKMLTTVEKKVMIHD
Sequence of Sigma intracellular receptor 2 (Q5BJF2 whole entry): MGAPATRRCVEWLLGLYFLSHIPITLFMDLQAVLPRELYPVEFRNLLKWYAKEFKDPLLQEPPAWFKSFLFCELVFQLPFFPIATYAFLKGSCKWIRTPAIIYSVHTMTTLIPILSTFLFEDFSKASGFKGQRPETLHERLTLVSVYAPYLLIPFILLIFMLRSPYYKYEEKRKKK

Row | SMILES | inhibition [1] [%] | inhibition [3] [%] | inhibition [5] [%] | inhibition [6] [%] | inhibition (Rattus norvegicus [7]) [%] | inhibition [8] [%] | inhibition [9] [%] | inhibition [10] [%] | inhibition [11] [%] | inhibition [12] [%] | inhibition [13] [%] | inhibition [14] [%] | inhibition [15] [%] | inhibition [17] [%] | inhibition [18] [%] | inhibition [19] [%] | inhibition [20] [%] | inhibition [21] [%] | inhibition [22] [%] | inhibition [23] [%] | other results
1 | CC(=O)Nc1ncc(CN2CCC[C@H](Cc3cc(C)nc(C)c3)C2)s1 [JNJ-65355394] | 8.07 | 14.3 | 18.7 | 8.68 | 5.69 | 11.8 | 19 | 9.6 | 6.7 | 7.21 | 8.3 | 0.63 | 15.2 | -2.94 | 22.2 | -8.39 | 44 | 12.7 | 44.8 | 13.4 | effect (Rattus norvegicus [2]): 1.6%; effect [4]: -3.05%; effect [16]: 4.1%; inhibition [24]: -5.2%; inhibition [25]: 3.29%; effect [26]: 5.75%; effect [27]: -1.85%; inhibition [28]: 10.8%
2 | CC(=O)Nc1nc(CN2CCC[C@H](Cc3cc(C)nc(C)c3)C2)cs1 [JNJ-73924149] | 43.5 | 25.6 | 17.8 | 31.7 | 11.2 | 8.67 | 59.6 | 2.58 | 17.9 | 52.3 | 7.45 | 8.04 | 16.3 | 6.45 | 12.3 | 43.6 | 44.2 | 17.8 | 59.1 | 81.9 | inhibition [29]: 0.93%; Ki [30]: 63.3 nM; inhibition [24]: -3.57%; inhibition [25]: 4.41%; inhibition [28]: 27.1%
